Test results: US20240285679A1, “COMPOSITIONS AND METHODS FOR VISION IMPROVEMENT” (Azura Ophthalmics Ltd., priority 2021, published 2024)

Test system: Patients with vision loss
Experiment: Clinical evaluation of vision improvement (OSDI vision assessment)
Type: in vivo
Settings: for course of OSDI vision improvement over the follow-up: follow-up at two weeks, one month, six weeks and 3 months; for vision, change from baseline as assessed by the OSDI vision assessment: twice a week on the lower eyelid of both eyes, FIGS. 2A-2C
Protocol: Patients with vision loss were treated with control (N=26) or a drug formulation comprising 0.1% selenium disulfide (n=9), 0.5% selenium disulfide (n=26), or 1% selenium disulfide (n=34). Treatment consisted of twice a week application of the drug product on the lower eyelid of both eyes. Patients were followed up and their vision was assessed with an Ocular Surface Disease Index (OSDI) vision assessment after two weeks, one month, six weeks, and 3 months.

selenium disulfide
course of OSDI vision improvement over the follow-up (0.5% selenium disulfide): continued improvement from 2 weeks to three months | course of OSDI vision improvement over the follow-up (1% selenium disulfide): continued improvement from 2 weeks to three months | vision, change from baseline as assessed by the OSDI vision assessment (drug formulation comprising 0.5% selenium disulfide): improvement in vision | vision, change from baseline as assessed by the OSDI vision assessment (drug formulation comprising 1% selenium disulfide): improvement in vision
